Results as given in patent publication US11980667B2, “Short TAT oligomers for drug delivery” (The Trustees of Columbia University in the City of New York, priority 2017, dated 2024).
Several values for one entry are separate records, joined by “and”; a condition that tells them apart may be missing. Identical values can stand only once.

Tests used:
[1] = Physiological changes during IA-TCH and IV delivery; type: in vivo, rat
Description: (§1) Comparison of […] and IV TAT delivery. Fisher 344 rats weighing about 200 g were utilized. During initial surgery under ketamine-xylazine isoflurane anesthesia 5×10^5 9 L cells were implanted 3 mm below the skull and 2-3 mm posterior and lateral to the bregma through a 1 mm craniotomy. […] The animals were assigned separately to IV and IA-TCH groups. On the day of drug delivery, animals were sedated with isoflurane and injected with ketamine/xylazine. The tail vein was cannulated for intravenous access. Under aseptic precautions, a tracheostomy and carotid cannulation were performed. Anesthesia was maintained by mechanical ventilation with isoflurane (1.8-2.2%). Thereafter animals were turned prone on a stereotactic frame. The skull was exposed and the region of tumor implantation was shaved to transparency. A laser Doppler probe was implanted on the skull with the aid of a plastic holder to assess cerebral/tumor blood flow. Rectal temperature, pulse pleth (volume), pulse oxygen saturation, EKG, expired and inspired gas composition, brain and skin blood flow with lase Doppler were continuously monitored.
(§2) Transient cerebral hypoperfusion and fluorescein-labeled TAT monomer injection. IA injections were made during TCH by the following method. Reduction of blood flow was achieved by bolus IV injections of adenosine (2 mg) and esmolol (2 mg), and cold saline (1.5 mL at 4° C.). Typically such an intervention decreases cerebral blood flow to about 20% of the baseline. The heart rate response varies from sinus bradycardia to a sinus pause. However, physiological parameters rapidly recover within 3-5 minutes. […] For each animal, a test IA injection was done prior to the onset of hypotension to ensure delivery of the desired injection volume and the injection sequence was resumed after bolus IV injections of hypotensive drugs.
Physiological parameters. Key parameters included inspired and expired gas composition, laser Doppler skin and brain/tumor blood flow, EKG for heart rate, pleth pulse, oxygen saturation, and rectal temperature which were continuously monitored. Data were analyzed at four time points: baseline, at the time of IA injection, 5 minutes after the start of injection, and at the end of the experiment. […] Immediately after sacrifice, brain tissue was harvested for imaging. All physiological data was recorded at 200 Hz by a Mac Lab data collection system.

9L glioma tumors [2] = details: four arrest cycles IA-TCH; single arrest from historical controls
Procedure: Multiple Arrest Study. 9L glioma tumors were implanted into five rats. 14 days post-implantation, the rats were anesthetized and prepared for the injections. Blood flow reduction was achieved by bolus IV injection of adenosine and esmolol that were flushed with cold saline. Four arrest cycles were used to deliver fluorescein-conjugated TAT monomer via intra-arterial injection with a 5 minute recovery period between each arrest. Animals were sacrificed 15 minutes after injection. Brain tissues were harvested an imaged using a multi-spectral imaging system using a photon counted cooled fluorescence camera. A 470 nm light was used for excitation while a 530 nm filter was used for imaging the emitted light.

9L glioma tumors [3] = details: IA-TCH, 1 mL of 0.5 mg/mL, 15 minutes
Procedure: In a separate experiment, 14 days post-implantation of 9L glioma tumors, eight rats were anesthetized and prepared for IA-TCH. Blood flow reduction for TCH was achieved by bolus IV injection of adenosine and esmolol that were flushed with cold saline. […] Animals were sacrificed 15 minutes after TAT injection. Brain tissue was harvested. Gross sections were imaged with multi-spectral imaging (MSI) system using a photon counting cooled fluorescence camera. A 490 nm light was used for excitation while 525 nm filter was used for imaging the emitted light.

9L glioma = test: IA-TCH versus IV delivery: uptake by multi-spectral imaging of gross specimens; type: in vivo, rat
Description: as §1, §2
Postmortem imaging. In preliminary experiments, known quantities of fluorescein-labeled TAT monomer was dissolved in intralipid and imaged using the multi-spectral imaging system. The multi-spectral imaging system contained two 470 nm light emitting diodes that evenly illuminated the test sample (Thor Labs Inc., NJ). An Evolve-512 (Photometerics Inc., Tucson, AZ) photon multiplying charge coupled device was used to image the sample through a 530 nm band pass filter. The camera is capable of performing background corrections and measuring the photon counts from the region of interest. Imaging conditions (sample, light source, and camera placements) were standardized throughout the experiment.
Immediately after sacrifice, the brains were harvested and immersed in cold saline. […] Samples were loaded on two capillary glass tubes that were placed alongside the tissue samples. Typically each specimen had 4 sections, one of which through the plane of the tumor was sent for frozen section, the remainder were placed in paraformaldehyde for paraffin blocks and histological sectioning.

## N=C(N)NCCC[C@H](NC(=O)CNC(=O)c1ccc2c(c1)C(=O)OC21c2ccc(O)cc2Oc2cc(O)ccc21)C(=O)N[C@@H](CCCCN)C(=O)N[C@@H](CCCCN)C(=O)N[C@@H](CCCNC(=N)N)C(=O)N[C@@H](CCCNC(=N)N)C(=O)N[C@@H](CCC(N)=O)C(=O)N[C@@H](CCCNC(=N)N)C(=O)N[C@@H](CCCNC(=N)N)C(=O)N[C@@H](CCCNC(=N)N)C(=O)N1CCC[C@H]1C(=O)N1CCC[C@H]1C(=O)N[C@@H](CCC(N)=O)C(=O)N[C@@H](CCC(N)=O)C(=O)O [fluorescein-labeled TAT monomer, 5-FAM-GRKKRRQRRR PPQQ-COOH]
[1]; IA-TCH, 5 min
  CBF: 90 ± 32 % Δbase
  ETCO2: 71 ± 17 % Δbase
  HR: 273 ± 59 BMP
  Isoflurane: 1.8 ± 0.8 ET %
  SaO2: 95%
  Sk · BF: 104 ± 38 % Δbase
  Temp: 36.6 ± 1.1 °C
[1]; IA-TCH, Base
  CBF: 100 ± 0 % Δbase
  ETCO2: 100 ± 0 % Δbase
  HR: 289 ± 19 BMP
  Isoflurane: 2.2 ± 0.2 ET %
  SaO2: 98 ± 2%
  Sk · BF: 100 ± 0 % Δbase
  Temp: 37.1 ± 1.3 °C
[1]; IA-TCH, End
  CBF: 81 ± 13 % Δbase
  ETCO2: 92 ± 27 % Δbase
  HR: 310 ± 11 BMP
  Isoflurane: 2.2 ± 0.4 ET %
  Sk · BF: 92 ± 16 % Δbase
  Temp: 36.9 ± 1.1 °C
[1]; IA-TCH, Injection
  CBF: 29 ± 26 % Δbase
  ETCO2: 54 ± 50 % Δbase
  HR: 63 ± 41 BMP
  Isoflurane: 0.8 ± 0.9 ET %
  SaO2: 92 ± 11 %
  Sk · BF: 18 ± 10 % Δbase
  Temp: 36.6 ± 1.3 °C
[1]; IV, 5 min
  CBF: 73 ± 13b % Δbase
  ETCO2: 85 ± 37 % Δbase
  HR: 267 ± 68 BMP
  Isoflurane: 2.1 ± 0.2 ET %
  SaO2: 97 ± 4%
  Sk · BF: 106 ± 28 % Δbase
  Temp: 36.1 ± 0.9 °C
[1]; IV, Base
  CBF: 100 ± 0 % Δbase
  ETCO2: 100 ± 0 % Δbase
  HR: 267 ± 17 BMP
  Isoflurane: 2.2 ± 0.3 ET %
  SaO2: 100 ± 5%
  Sk · BF: 100 ± 0 % Δbase
  Temp: 35.9 ± 0.9 °C
[1]; IV, End
  CBF: 73 ± 12b % Δbase
  ETCO2: 86 ± 14 % Δbase
  HR: 283 ± 10 BMP
  Isoflurane: 2.1 ± 0.3 ET %
  SaO2: 99 ± 2%
  Sk · BF: 116 ± 30 % Δbase
  Temp: 36.5 ± 1.0 °C
[1]; IV, Injection
  CBF: 122 ± 21 % Δbase
  ETCO2: 75 ± 39 % Δbase
  HR: 274 ± 31 BMP
  Isoflurane: 0.4 ± 0.1 ET %
  SaO2: 97 ± 4%
  Sk · BF: 144 ± 50a,# % Δbase
  Temp: 35.9 ± 0.9 °C
9L glioma tumors [2]
  Deposition, multiple arrest compared to single-arrest: increases the amount of TAT deposition but also increases non-specific deposition
9L glioma tumors [3]
  Concentration in the tumor versus the opposite side: 13 ×
  Uptake in the tumor compared to adjacent regions: 5 ×
9L glioma; IA-TCH
  Tumor concentration compared to brain tissue on the ipsi-lateral side: 6.1 fold
9L glioma; IA-TCH, n = 6
  Contralateral fluorescence: 0.029 ± 0.012 AU
  Ipsi/contra-lateral ratio: 1.7 ± 0.5
  Ipsilateral fluorescence: 0.047 ± 0.019 AU
  Tumor fluorescence: 0.277 ± 0.139 AU
  Tumor/contralateral ratio: 10.1 ± 4.9
  Tumor/ipsilateral ratio: 6.1 ± 2.6
9L glioma; IV
  Tumor concentration compared to brain tissue on the ipsi-lateral side: 2.3 fold and 2.4 fold
9L glioma; IV, n = 6
  Ipsi/contra-lateral ratio: 1.1 ± 0.3
  Ipsilateral fluorescence: 0.028 ± 0.005 AU
  Tumor fluorescence: 0.063 ± 0.030 AU
  Tumor/contralateral ratio: 2.7 ± 1.5
  Tumor/ipsilateral ratio: 2.4 ± 1.2
9L glioma; rat, in vivo
  Overall effectiveness of IA-TCH relative to IV: 4 ×
